US6656905B1, “Cyclic tetrapeptide compound and use thereof” (Fujisawa Pharmaceutical Co., Ltd., priority 1998, dated 2003)

Key:
[1] = system: murine lymphocyte blastogenesis induced by anti-CD3 antibody (splenic cells of Balb/c mice); experiment: Lymphocyte blastogenesis test (MTT dye reduction); format: cell-based; settings: for Inhibition (%): 72 hours
Method: Effect on Lymphocyte Blastogenic Response
The lymphocyte blastogenesis test was performed in microtiter plates with each well containing 1×10^5 splenic cells of Balb/c mice in 0.1 ml RPMI-1640 medium supplemented with 10% fetal bovine serum (FBS), […] 2-mercaptoethanol, penicillin (100 units/ml) and streptomycin (100 μg/ml), to which anti-CD3 antibody (2C11) (1 μg/ml) was added. The cells were incubated at 37° C. in a humidified atmosphere of 5% CO2 for 72 hours. After the culture period, suppressive activities of the test samples in lymphocyte blastogenesis were quantified by an MTT [3-(4,5-dimethylthiazol-2-yl)-2,5-diphenyl-2H-tetrazolium bromide (MTT)] dye reduction assay.
WF27082 B was dissolved in methanol and further diluted in RPMI-1640 medium and added to the culture to give final concentrations of 50 ng/ml or less. FR235220 was dissolved in methanol and further diluted in RPMI-1640 medium and added to the culture to give final concentrations of 500 ng/ml or less. The results are shown in Table 2 and Table 3, respectively.

[2] = system: partially purified human histone deacetylase; experiment: Activity of partially purified human histone deacetylase ([3H]acetyl histone assay); format: biochemical; settings: for Effect on histone deacetylase activity (in words): summary of Table 5
Method: Effect on Activity of Partially Purified Human Histone Deacetylase
The partial purification of human histone deacetylase, the preparation of [^3H] acetyl histones, and the assay for histone deacetylase activity were basically performed according to the method as proposed by Yoshida et al. as follows.
Partial Purification of Human Histone Deacetylase—The human histone deacetylase was partially purified from human T cell leukemia Jurkat cells. Jurkat cells (5×10^8cells) were suspended in 40 ml of the HDA buffer consisting of 15 mM potassium phosphate, pH 7.5, 5% glycerol and 0.2 mM EDTA. After homogenization, nuclei were collected by centrifugation (35,000 ×g, 10 min) and homogenized in 20 ml of the same buffer supplemented with 1 M (NH4)2SO4. The viscous homogenate was sonicated and clarified by centrifugation (35,000 ×g, 10 min), and the deacetylase was precipitated by raising the concentration of (NH4)2SO4 to 3.5 M. The precipitated protein was dissolved in 10 ml of the HDA buffer and dialyzed against 4 liters of the same buffer. The dialyzate was then loaded onto a DEAE-cellulose (Whatman DE52) column (25×85 mm) equilibrated with the same buffer and eluted with a linear gradient (0-0.6 M) of NaCl (300 ml). A single peak fraction of histone deacetylase activity was eluted between 0.3 and 0.4 M NaCl.
Preparation of [^3H] Acetyl Histones—To obtain [^3H]acetyl-labeled histones as the substrate for the histone deacetylase assay, 1×10^8 cells of Jurkat in 20 ml of RPMI-1640 medium supplemented with 10% FBS, penicillin (50 units/ml) and streptomycin (50 μg/ml) were incubated with 300 MBq [^3H] sodium acetate in the presence of […] sodium butyrate for 30 min in 5% CO2-95% air atmosphere at 37° C. in a 75 cm2 flask, harvested into a centrifuge tube (50 ml), collected by centrifugation at 1000 rpm for 10 min, and washed once with phosphate-buffered saline. The washed cells were suspended in 15 ml of ice-cold lysis buffer (10 mM Tris-HCl, 50 mM sodium bisulfite, 1% Triton X-100, 10 mM MgCl2, 8.6% sucrose, pH 6.5). After Dounce homogenization (30 stroke), the nuclei were collected by centrifugation at 1000 rpm for 10 min, washed three times with 15 ml of the lysis buffer, and once with 15 ml of ice-old washing buffer (10 mM Tris-HCl, 13 mM EDTA, pH 7.4) successively. The pellet was suspended in 6 ml of ice-cold water using a mixer, and […] of H2SO4 was added to the suspension to give a concentration of 0.4 N. After incubation at 4° C. for 1 hour, the suspension was centrifuged for 5 min at 15,000 rpm, and the supernatant was taken and mixed with 60 ml of acetone. After overnight incubation at −20° C., the coagulated material was collected by microcentrifugation, air-dried, and stored at […].
Assay for Histone Deacetylase Activity—For the standard assay, 10 μl of [^3H]acetyl-labeled histones was added to 90 μl of the enzyme fraction, and the mixture was incubated at 25° C. for 30 min. The reaction was stopped by addition of 10 μl of HCl. The released [^3H]acetic acid was extracted with 1 ml of ethyl acetate, and 0.9 ml of the solvent layer was taken into 10 ml of toluene scintillation solution for determination of radioactivity.

[3] = Solubility in solvents (physico-chemical properties); format: physicochemical; settings: solvents in which soluble

Inhibition (%) ([2]; 1 ng/ml) | Inhibition (%) ([2]; 10 ng/ml) | Inhibition (%) ([2]; 100 ng/ml) | Inhibition (%) ([2]; 1000 ng/ml) | Effect on histone deacetylase activity (in words) [2] | SMILES | Inhibition (%) ([1]; 4 ng/ml) | Inhibition (%) ([1]; 8 ng/ml) | Inhibition (%) ([1]; 16 ng/ml) | Inhibition (%) ([1]; 31 ng/ml) | Inhibition (%) ([1]; 63 ng/ml) | Inhibition (%) ([1]; 125 ng/ml) | Inhibition (%) ([1]; 250 ng/ml) | Inhibition (%) ([1]; 500 ng/ml) | Effect on murine lymphocyte blastogenesis (in words) ([1]; summary of Tables 2 and 3) | Solubility: Soluble [3]
−13.1 | 33.7 | 74.6 | 94.6 | potently inhibited | CC(O)C(=O)CCCCCC1NC(=O)C2CCCN2C(=O)C(Cc2ccccc2)NC(=O)C(C)(C)NC1=O (centres unmarked) [FR235220] | −23.4 | −1.3 | 45.1 | 106.0 | 125.3 | 127.2 | 126.0 | 126.0 | suppressed murine lymphocyte blastogenesis induced by anti-CD3 antibody in a dose-dependent manner | 
11.4 | 36.5 | 74.1 | 91.7 | potently inhibited | CC1CC2C(=O)NC(CCCCCC(=O)C(C)O)C(=O)NC(C)(C)C(=O)NC(Cc3ccccc3)C(=O)N2C1 (centres unmarked) [WF27082 F] |  |  |  |  |  |  |  |  |  | methanol, chloroform, ethyl acetate, dimethyl sulfoxide

SMILES | Inhibition (%) ([2]; 1 ng/ml) | Inhibition (%) ([2]; 10 ng/ml) | Inhibition (%) ([2]; 100 ng/ml) | Inhibition (%) ([2]; 1000 ng/ml) | Effect on histone deacetylase activity (in words) [2] | Inhibition (%) ([1]; 4 ng/ml) | Inhibition (%) ([1]; 8 ng/ml) | Inhibition (%) ([1]; 16 ng/ml) | Inhibition (%) ([1]; 31 ng/ml) | Inhibition (%) ([1]; 63 ng/ml) | Inhibition (%) ([1]; 125 ng/ml) | Inhibition (%) ([1]; 250 ng/ml) | Inhibition (%) ([1]; 500 ng/ml) | Effect on murine lymphocyte blastogenesis (in words) ([1]; summary of Tables 2 and 3) | Solubility: Soluble [3]
CCC1(C)NC(=O)C(CCCCCC(=O)C(C)O)NC(=O)C2CCCN2C(=O)C(Cc2ccccc2)NC1=O (centres unmarked) [WF27082 E] | 11.1 | 57.6 | 88.5 | 104.9 | potently inhibited |  |  |  |  |  |  |  |  |  | methanol, chloroform, ethyl acetate, dimethyl sulfoxide
